The text below walks through data of patent US12331035B2, “Bicyclic compound and use thereof” (SK BIOPHARMACEUTICALS CO., LTD., priority 2019, dated 2025).

pIC50: −log10 of the molar value. Where a name gives a salt, the structure may show the parent alone.

The target of the assay is T1, PRMT5-MEP50 enzyme complex (Homo sapiens, UniProt O14744).
T1 construct: purchased BPS Bioscience (USA) 51045
T1 sequence (O14744 2-637 limits assumed): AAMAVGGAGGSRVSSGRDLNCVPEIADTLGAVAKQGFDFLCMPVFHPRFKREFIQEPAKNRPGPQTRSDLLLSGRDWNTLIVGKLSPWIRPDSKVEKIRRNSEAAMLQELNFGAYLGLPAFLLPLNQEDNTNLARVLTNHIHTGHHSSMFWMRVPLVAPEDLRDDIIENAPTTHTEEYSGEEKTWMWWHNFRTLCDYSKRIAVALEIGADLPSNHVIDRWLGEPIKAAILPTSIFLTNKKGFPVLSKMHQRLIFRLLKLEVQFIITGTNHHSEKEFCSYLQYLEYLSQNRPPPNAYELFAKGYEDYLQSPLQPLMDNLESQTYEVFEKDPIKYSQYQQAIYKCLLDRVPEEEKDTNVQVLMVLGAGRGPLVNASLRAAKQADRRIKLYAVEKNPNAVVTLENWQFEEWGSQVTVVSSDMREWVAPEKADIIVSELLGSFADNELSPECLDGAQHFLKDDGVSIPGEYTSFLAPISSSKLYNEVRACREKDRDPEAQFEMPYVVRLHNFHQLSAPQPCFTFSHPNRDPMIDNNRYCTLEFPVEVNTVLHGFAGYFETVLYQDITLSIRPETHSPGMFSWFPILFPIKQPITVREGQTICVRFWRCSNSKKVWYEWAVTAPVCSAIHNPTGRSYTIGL
T1 sequence (Q9BQA1 2-342 partner limits assumed): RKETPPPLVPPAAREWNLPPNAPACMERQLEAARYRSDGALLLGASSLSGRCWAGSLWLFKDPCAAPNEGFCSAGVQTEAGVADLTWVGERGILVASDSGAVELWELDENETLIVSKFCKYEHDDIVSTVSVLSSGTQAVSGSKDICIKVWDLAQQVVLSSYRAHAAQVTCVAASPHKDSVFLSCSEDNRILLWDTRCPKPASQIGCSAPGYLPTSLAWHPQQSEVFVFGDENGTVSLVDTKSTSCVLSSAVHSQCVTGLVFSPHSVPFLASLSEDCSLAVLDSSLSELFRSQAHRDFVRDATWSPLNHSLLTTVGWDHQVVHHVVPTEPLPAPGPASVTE
Put plainly: In vitro PRMT5 enzyme activity assay (methylation of histone H4 arginine H4R3, ELISA absorbance at 450 nm). The assay is classed as biochemical. To be noted: S-adenosylmethionine, histone H4 peptide, 2 hours at room temperature, 8 points 10 μM to 0.128 nM. The procedure:
Method for Measuring Enzyme Activity
In vitro assay: PRMT5-MEP50 enzyme complex, cofactor S-adenosylmethionine (SAM) and histone H4 peptide were reacted in vitro, and methylation of arginine (H4R3) —which is the third amino acid of histone H4—was measured in order to measure the enzyme activity of PRMT5.
Reagents: PRMT5-MEP50 enzyme complex (Catalog No. 51045), blocking buffer (52100-B), histone methyltransferase reaction buffer 2 (4×HMT assay buffer 2, Catalog No. 52170), and primary antibody (primary antibody 4-3, Catalog No. 52150) were purchased from BPS Bioscience (USA). The histone H4 peptide (1-20 amino acids) was custom made by Komabiotech (Korea) and used. S-adenosylmethionine was purchased from NEB (New England Biolabs, USA, Catalog No. B9003S). Plates for coating histone H4 peptide, washing buffer and color development reagent were purchased from the following vendors: Plate (Immobilizer™-Amino Plate, NUNC, Denmark, Catalog No. 436023), carbonate-bicarbonate buffer (Sigma-Aldrich, USA, Catalog No. C3041), washing buffer (10×TBST, Biosesang, Korea, Catalog No. T2005), TMB ELISA substrate (Abcam, UK, Catalog No. ab210902), horseradish peroxidase (HRP)-conjugated antibody (Abcam, UK, Catalog No. ab6721).
Experimental procedure: The histone H4 peptide was diluted with carbonate-bicarbonate buffer and prepared to 100 μg/mL, and then dispensed onto the plate per 100 μL and reacted at 37° C. for 1 hour. PRMT5-MEP50 enzyme complex and S-adenosylmethionine were diluted with histone methyltransferase reaction buffer to prepare 5 μg/mL and 2 μM, respectively, and then 20 μL of PRMT5-MEP50 enzyme complex and 25 μL of S-adenosylmethionine were dispensed onto the plate prepared above. 5 μL of the compound diluted with 10% dimethyl sulfoxide solution was added thereto and reacted at room temperature for 2 hours (final volume=50 μL). The concentration of the compound was diluted 1:5 from 10 μM until the lowest concentration of 0.128 nM, and 8 points were used for the test. After preparing the primary antibody by diluting 1:2000 with blocking buffer, 100 μL was added to the plate and reacted at room temperature for 1 hour. After preparing horseradish peroxidase-conjugated antibody by diluting 1:10,000 with blocking buffer, 100 μL was added to the plate and reacted at room temperature for 1 hour. 100 μL of TMB substrate was added and reacted for 3 minutes at room temperature, and 100 μL of 1 N sulfuric acid was then added to terminate the reaction. Then, the absorbance at 450 nm was measured to calculate the IC50 value of the compound. (+++: 1 to 100 nM, ++: greater than 100 to 1,000 nM, +: greater than 1,000 to 10,000 nM)
What is called pIC50 is the IC50 on a negative log10 scale, so that one unit is a factor of ten. Low readings indicate a high IC50, high ones a low IC50. Take `O=C1c2ccc(Cl)nc2CCN1C[C@H](O)CN1CCc2ccccc2C1` [Example 75, 2-chloro-6-[(2R)-3-(3,4-dihydro-1H-isoquinolin-2-yl)-2-hydroxy-propyl]-7,8-dihydro-1,6-naphthyridin-5-one]: the pIC50 is 6.00 to 7.00.

Compound `CC(=O)N1CCC(c2ccc3c(c2)CCN(C[C@H](O)CN2CCc4ccccc4C2)C3=O)CC1` [Example 67, 6-(1-acetyl-4-piperidyl)-2-[(2R)-3-(3,4-dihydro-1H-isoquinolin-2-yl)-2-hydroxy-propyl]-3,4-dihydroisoquinolin-1-one] had a pIC50 of 5.00 to 6.00.

The compound `COC1CCN(c2ccc3c(c2)CCN(C[C@H](O)CN2CCc4ccccc4C2)C3=O)CC1` [Example 48, 2-[(2R)-3-(3,4-dihydro-1H-isoquinolin-2-yl)-2-hydroxy-propyl]-6-(4-methoxy-1-piperidyl)-3,4-dihydroisoquinolin-1-one] had a pIC50 of 7.00 to 9.00.

As for `O=C1c2ccc(N3CCCC(CO)C3)cc2CCN1C[C@H](O)CN1CCc2ccccc2C1` (stereo partly drawn) [Example 36, 2-[(2R)-3-(3,4-dihydro-1H-isoquinolin-2-yl)-2-hydroxy-propyl]-6-[3-(hydroxymethyl)-1-piperidyl]-3,4-dihydroisoquinolin-1-one], the pIC50 was 7.00 to 9.00.

Take `CCN1CCC(Oc2ccc3c(c2)C(C)(C)CN(C[C@H](O)CN2CCc4ccccc4C2)C3=O)CC1` [Example 131, 2-[(2R)-3-(3,4-dihydro-1H-isoquinolin-2-yl)-2-hydroxy-propyl]-6-[(1-ethyl-4-piperidyl)oxy]-4,4-dimethyl-3H-isoquinolin-1-one]: the pIC50 was 7.00 to 9.00.

As for `CC(=O)N1CC(Oc2ccc3c(c2)CCN(C[C@H](O)CN2CCc4ccccc4C2)C3=O)C1` [Example 96, 6-(1-acetylazetidin-3-yl)oxy-2-[(2R)-3-(3,4-dihydro-1H-isoquinolin-2-yl)-2-hydroxy-propyl]-3,4-dihydroisoquinolin-1-one], the negative logarithm of the IC50 (pIC50) is 6.00 to 7.00.

In turn, `CC(C)N1CCN(c2ccc3c(c2)CCN(C[C@H](O)CN2CCc4ccccc4C2)C3=O)CC1=O` [Example 85, 2-[(2R)-3-(3,4-dihydro-1H-isoquinolin-2-yl)-2-hydroxy-propyl]-6-(4-isopropyl-3-oxo-piperazin-1-yl)-3,4-dihydroisoquinolin-1-one] showed a pIC50 of 6.00 to 7.00.

Compound `O=C1c2ccc(NC3CCOCC3)cc2CCN1C[C@H](O)CN1CCc2ccccc2C1` [Example 5, 2-[(2R)-3-(3,4-dihydro-1H-isoquinolin-2-yl)-2-hydroxy-propyl]-6-(tetrahydropyran-4-ylamino)-3,4-dihydroisoquinolin-1-one] had a pIC50 of 7.00 to 9.00.

`CCOC(=O)N1CCN(c2ccc3c(c2)CCN(C[C@H](O)CN2CCc4ccccc4C2)C3=O)CC1` [Example 65, ethyl 4-[2-[(2R)-3-(3,4-dihydro-1H-isoquinolin-2-yl)-2-hydroxy-propyl]-1-oxo-3,4-dihydroisoquinolin-6-yl]piperazine-1-carboxylate] gave a pIC50 of 5.00 to 6.00.

On to `O=C1c2ccc(CN3CCOCC3)cc2CCN1C[C@H](O)CN1CCc2ccccc2C1` [Example 43, 2-[(2R)-3-(3,4-dihydro-1H-isoquinolin-2-yl)-2-hydroxy-propyl]-6-(morpholinomethyl)-3,4-dihydroisoquinolin-1-one], for which the pIC50 was 5.00 to 6.00.

For the compound `O=C1c2ccc(NCC3CCOC3)cc2CCN1C[C@H](O)CN1CCc2ccccc2C1` (stereo partly drawn) [Example 30, 2-[(2R)-3-(3,4-dihydro-1H-isoquinolin-2-yl)-2-hydroxy-propyl]-6-(tetrahydrofuran-3-ylmethylamino)-3,4-dihydroisoquinolin-1-one], the pIC50 was 7.00 to 9.00.

In turn, `O=C1c2ccc(NCC3CCCCC3)cc2CCN1C[C@H](O)CN1CCc2ccccc2C1` [Example 6, 6-(cyclohexylmethylamino)-2-[(2R)-3-(3,4-dihydro-1H-isoquinolin-2-yl)-2-hydroxy-propyl]-3,4-dihydroisoquinolin-1-one] had a pIC50 of 7.00 to 9.00.

In turn, `CC(C)(C)OC(=O)N1CCCN(c2ccc3c(c2)CCN(C[C@H](O)CN2CCc4ccccc4C2)C3=O)CC1` [Example 78, tert-butyl 4-[2-[(2R)-3-(3,4-dihydro-1H-isoquinolin-2-yl)-2-hydroxy-propyl]-1-oxo-3,4-dihydroisoquinolin-6-yl]-1,4-diazepane-1-carboxylate] showed a pIC50 of 7.00 to 9.00.

Regarding `CC(=O)N1CCCC(Nc2ccc3c(c2)CCN(C[C@H](O)CN2CCc4ccccc4C2)C3=O)CC1` (stereo partly drawn) [Example 98, 6-[(1-acetylazepan-4-yl)amino]-2-[(2R)-3-(3,4-dihydro-1H-isoquinolin-2-yl)-2-hydroxy-propyl]-3,4-dihydroisoquinolin-1-one], the negative-log IC50 (pIC50) is 6.00 to 7.00.

`O=C1c2ccc(-c3ccc(F)nc3)cc2CCN1C[C@H](O)CN1CCc2ccccc2C1` [Example 15, 2-[(2R)-3-(3,4-dihydro-1H-isoquinolin-2-yl)-2-hydroxy-propyl]-6-(6-fluoro-3-pyridyl)-3,4-dihydroisoquinolin-1-one]: the negative logarithm of the IC50 (pIC50) is 7.00 to 9.00.

In turn, `O=C1c2ccc(N3CCC(CO)CC3)cc2CCN1C[C@H](O)CN1CCc2ccccc2C1` [Example 35, 2-[(2R)-3-(3,4-dihydro-1H-isoquinolin-2-yl)-2-hydroxy-propyl]-6-[4-(hydroxymethyl)-1-piperidyl]-3,4-dihydroisoquinolin-1-one] showed a negative-log IC50 (pIC50) of 7.00 to 9.00.

The compound `CN(C)C1CCCN(c2ccc3c(c2)CCN(C[C@H](O)CN2CCc4ccccc4C2)C3=O)C1` (stereo partly drawn) [Example 116, 2-[(2R)-3-(3,4-dihydro-1H-isoquinolin-2-yl)-2-hydroxy-propyl]-6-[3-(dimethylamino)-1-piperidyl]-3,4-dihydroisoquinolin-1-one] had a pIC50 of 6.00 to 7.00.

Regarding `CC1(C)CN(C[C@H](O)CN2CCc3ccccc3C2)C(=O)c2ccc(N3CCN(C=O)CC3)cc21` [Example 130, 4-[2-[(2R)-3-(3,4-dihydro-1H-isoquinolin-2-yl)-2-hydroxy-propyl]-4,4-dimethyl-1-oxo-3H-isoquinolin-6-yl]piperazine-1-carbaldehyde; hydrochloride], the pIC50 is 5.00 to 6.00.

`O=C1c2ccc(N3CCC(N4CCOCC4)CC3)cc2CCN1C[C@H](O)CN1CCc2ccccc2C1` [Example 108, 2-[(2R)-3-(3,4-dihydro-1H-isoquinolin-2-yl)-2-hydroxy-propyl]-6-(4-morpholino-1-piperidyl)-3,4-dihydroisoquinolin-1-one] gave a pIC50 of 6.00 to 7.00.

Compound `CC(=O)N1CCN(c2ccc3c(c2)C(C)(C)CN(C[C@H](O)CN2CCc4ccccc4C2)C3=O)CC1` [Example 104, 6-(4-acetylpiperazin-1-yl)-2-[(2R)-3-(3,4-dihydro-1H-isoquinolin-2-yl)-2-hydroxy-propyl]-4,4-dimethyl-3H-isoquinolin-1-one] had a pIC50 of 7.00 to 9.00.

`CC1(C)CN(C[C@H](O)CN2CCc3ccccc3C2)C(=O)c2ccc(N3CCOCC3)cc21` [Example 112, 2-[(2R)-3-(3,4-dihydro-1H-isoquinolin-2-yl)-2-hydroxy-propyl]-4,4-dimethyl-6-morpholino-3H-isoquinolin-1-one] gave a pIC50 of 6.00 to 7.00.

Consider `CN(C)C1CCN(c2ccc3c(c2)C(C)(C)CN(C[C@H](O)CN2CCc4ccccc4C2)C3=O)CC1` [Example 111, 2-[(2R)-3-(3,4-dihydro-1H-isoquinolin-2-yl)-2-hydroxy-propyl]-6-[4-(dimethylamino)-1-piperidyl]-4,4-dimethyl-3H-isoquinolin-1-one], for which the negative logarithm of the IC50 (pIC50) is 6.00 to 7.00.
